# Data as given in patent publication US20070148660A1, “Treatment of maladaptive substance use with H-ras antagonists” (The Regents of the University of California, priority 2005, published 2007).
# Tests used:
# NMDAR = assay: NMDAR-mediated fEPSPs, hippocampal CA1 field recording; assay type: cell-based, mouse; conditions: bath application of 80 mM ethanol, n=11
# Experimental: Electrophysiological recordings were performed in C57BL/6J mice ranging from P21 to P26. Briefly, mice were anesthetized with halothane and decapitated as per University of California, San Francisco animal care guidelines. Horizontal sections of the hippocampus ([…]) were prepared with a vibratome (Leica, Nussloch, Germany). Slices were placed in a holding chamber and allowed to recover for at least 1 hr before being placed in the recording chamber and superfused with aCSF saturated with 95% O2/5% CO2 and containing (in mM): 119 NaCl, 1.6 KCl, 1.0 NaH2PO4, 1.3 MgCl2 (for EPSCs) or 0.01 MgCl2 (for field excitatory postsynaptic potentials (fEPSPs)), 2.5 CaCl2, 26.2 NaHCO3 and 11 glucose. […]
# fEPSPs were recorded using a MultiClamp 700A amplifier (Axon Instruments, Union City, Calif.) with […] patch pipettes filled with 1 M NaCl and 25 mM HEPES. To evoke fEPSPs, Schaffer collateral/commissural afferents in hippocampal CA1 region were stimulated with 0.1 Hz pulses using steel bipolar microelectrodes at intensities adjusted to produce an evoked response that was 50% of the maximal recorded fEPSP for each recording. fEPSPs were filtered at 1 kHz, digitized at 10 kHz and collected on-line using with pClamp 9 (Axon Instrument, Union City, Calif.). […]
# NR2B-adaptin association = conditions: 100 mM ethanol, 15 min, L(-tk) cells NR1+NR2B + PSD-95
# Experimental: (§1) L(−tk) were cultured on 100 mm plates. When cells reached 75% confluency, they were transfected with 5 μg of PSD95-GFP cDNA using LipofectAMINE PLUS in accordance with the manufacturer's instructions. 24 hrs after transfection, the expression of the NMDAR subunits NR1+NR2A or NR1+NR2B was induced with […] dexamethasone in DMEM containing 10% FBS, and 0.5 mM ketamine as previously described (21). After 3 days of induction, the cross-linking or immunoprecipitation studies were conducted. Homogenates were obtained as described in (17).
# (§2) The treated slices were homogenized in ice-cold buffer containing 1% deoxycholate, protease and phosphatase inhibitors and (in mM): 250 sucrose, 20 Tris-HCl (pH 7.5), 2 EDTA and 10 EGTA. 500 μg of the protein was diluted with 1× immunoprecipitation buffer (1% Triton X-100 and (in mM): 150 NaCl, 10 Tris HCl (pH 7.4), 1 EDTA, 1 EGTA and 0.2 sodium orthovanadate) and incubated with 5 μg of the appropriate antibody, followed by an overnight incubation at 4° C. with protein G agarose beads. The beads were extensively washed, re-suspended in 2× sample buffer and boiled for 5-10 min. The samples were then subjected to SDS-PAGE followed by Western blotting with the appropriate antibodies.
# (§3) Proteins were separated by SDS-PAGE and blotted onto a nitrocellulose membrane. […] Results were quantified by NIH Image 1.61.
# [1] = tested on: NR2A-adaptin β2 association; conditions: 100 mM ethanol, 15 min, L(-tk) cells NR1+NR2A + PSD-95
# Experimental: as §1, §2, §3
# Ras = Ras activity assay (Raf-1-Ras binding domain GST-agarose), hippocampal slices; assay type: cell-based, mouse; conditions: 100 mM ethanol, 15 min, hippocampal slices
# Experimental: The treated hippocampal homogenates (250 μg) were incubated with […] of Raf-1-Ras binding domain GST-agarose for 45 min at 4° C. while rotating, as per manufacturer's instructions. […] Results were quantified by NIH Image 1.61.
# NR2A = conditions: 100 mM ethanol, 15 min, L(-tk) cells NR1+NR2A
# Experimental: as §1
# Cross-linking was performed as described previously (22), with minor modifications. Following treatment, the slices were placed in cold aCSF in the presence or absence of 2 mg/ml of the cross-linking reagent BS^3 for 45 min at 4° C. while shaking. Slices were then rinsed three times with cold aCSF containing 20 mM Tris (pH 7.6), followed by sonication in cold homogenization buffer (10% SDS, 10 mM EDTA, 100 mM Tris (pH 8.0), and protease and phosphatase inhibitor cocktails). The protein concentration was determined using the BCA assay, followed by SDS-PAGE and Western blot analysis. Data are expressed as ratio of normalized surface expressed or internalized receptors to the total receptor levels.
# as §3
# [2] = tested on: NR2A-adaptin β2 association; assay: Co-immunoprecipitation of NR2A and adaptin β2, hippocampal slices; assay type: cell-based, mouse; conditions: 100 mM ethanol, 15 min
# Experimental: (§4) Transverse hippocampal slices ([…]) were prepared from 10- to 12-week-old C57BL/6J mice. Slices were allowed to recover for 90 min in artificial cerebrospinal fluid (aCSF) saturated with 95% O2/5% CO2 containing (in mM): 126 NaCl, 1.2 KCl, 1.2 NaH2PO4, 1.2 MgCl2, 2.4 CaCl2, 18 NaHCO3, and 11 glucose. Following recovery, slices were treated with aCSF (control) or ethanol at room temperature, after which the slices were rinsed in cold aCSF, and used either for cross-linking experiments, for Ras activity assay, or for immunoprecipitation. In experiments using Tat-H-Ras DN or the Tat-peptide, the slices were pretreated with either aCSF (control) or 2 μM Tat-H-Ras DN or Tat-peptide for 2 hrs at room temperature, followed by ethanol treatments.
# as §2, with “The beads were extensively washed, re-suspended in 2× sample buffer and boiled for 5-10 min. The samples were then subjected to SDS-PAGE followed by Western blotting with the appropriate antibodies.” left out
# as §3
# [3] = tested on: adaptin β2 with the AMPAR subunit GluR1; conditions: 100 mM ethanol, 15 min, hippocampal slices
# Experimental: as §4, §2
# (§5) Proteins were separated by SDS-PAGE and blotted onto a nitrocellulose membrane. After blocking, the membranes were incubated with the specific primary antibody, followed by horseradish peroxidase-conjugated secondary antibody. Detection was obtained followed by enhanced chemiluminescent reaction (Amersham Biosciences), and processed using the STORM PhosphoImager (Amersham Biosciences). Results were quantified by NIH Image 1.61.
# Src kinase = conditions: 100 mM ethanol, 15 min, hippocampal slices
# Experimental: as §4, §2, §5
# adaptin β2 with TrkB = conditions: 100 mM ethanol, 15 min, hippocampal slices
# Experimental: as §4, §2, §5
# NR2A subunits = conditions: 100 mM ethanol, 15 min, hippocampal slices
# Experimental: as §4
# Chymotrypsin experiments were performed as described previously (22), with minor modifications. Following recovery, slices were treated with aCSF or 0.5 mg/ml chymotrypsin at 32° C. for 5 min. […] The protein concentration was determined using the BCA assay, followed by SDS-PAGE and Western blot analysis.
# as §3
smiles,measurement,setting,value
CCO [ethanol],inhibition of NMDAR-mediated fEPSPs,NMDAR,47+8%
same,NR2B-adaptin association,NR2B-adaptin association,no change
same,association of NR2A with adaptin β2,[1],increase
same,increase of Ras-GTP levels over the control,Ras,at least 2 fold
same,internalized pool of NR2A,NR2A,increase
same,association of adaptin β2 with NR2A and vice-versa,[2],significantly increased
same,interaction between GluR1 and adaptin β2,[3],no change
same,decrease in the levels of active phosphorylated Src,Src kinase,approximately 40%
same,interaction between TrkB and adaptin β2,adaptin β2 with TrkB,no change
same,internalization of the NR2A subunits (chymotrypsin),NR2A subunits,significantly increased
